The text below walks through data of article PMC6084503, “Pyrrolo[3,2-c]pyridine derivatives with potential inhibitory effect against FMS kinase: in vitro biological studies” (Journal of Enzyme Inhibition and Medicinal Chemistry, 2018).

As usually defined, the inhibition is the drop in the measured response relative to a control, in per cent. The term IC50 denotes the concentration that inhibits the measured activity by half. One may read the % Inhibition as the relative decrease from the control value, in per cent.

Molecules are shown by their SMILES. Where two headings read alike, the source gives them in different places.

The target of one assay is T1, RSK1 (Homo sapiens, UniProt Q15418).
T1 construct: purchased Reaction Biology Corp. (Kinase HotSpot)
The assay is described as follows: Kinase HotSpot 40-kinase panel. Format: biochemical. The settings on record: single-dose concentration of 1 μM. As for the experimental part:
(§1) Reaction Biology Corp. Kinase HotSpot^SM service [http://www.reactionbiology.com] was utilised for screening of the target compounds as per the protocol reported in the literature.
(§2) Compound 1r was tested against a panel of 40 kinases including FMS. […] Its inhibition percentages against FLT3 (D835Y) and c-MET kinases were 42% and 40%, respectively. So its IC50 values against both of them will be in micromolar scale. […] The inhibition percentages exerted by compound 1r against the other 37 tested kinases were less than 28%.

The target of a further assay is T2, TEC (activated) (Homo sapiens, UniProt P42680).
T2 construct: purchased Reaction Biology Corp. (Kinase HotSpot)
The assay is described as follows: Kinase HotSpot 40-kinase panel. It counts as biochemical. To be noted: single-dose concentration of 1 μM. As for the experimental part:
as §1, §2

In the next assay the target is T3, ABL1 (Homo sapiens, UniProt P00519).
T3 construct: purchased Reaction Biology Corp. (Kinase HotSpot)
The assay is described as follows: Kinase HotSpot 40-kinase panel. Format: biochemical. To be noted: single-dose concentration of 1 μM. As for the experimental part: as §1, §2

For the next assay, the target named is T4, RET (Homo sapiens, UniProt P07949).
T4 construct: purchased Reaction Biology Corp. (Kinase HotSpot)
The experiment in a line: Kinase HotSpot 40-kinase panel. Format: biochemical. The settings on record: single-dose concentration of 1 μM. The method, then:
as §1, §2

In another assay the target is T5, BTK (Homo sapiens, UniProt Q06187).
T5 construct: purchased Reaction Biology Corp. (Kinase HotSpot)
The assay is described as follows: Kinase HotSpot 40-kinase panel. Format: biochemical. To be noted: single-dose concentration of 1 μM. The method, then: as §1, §2

In a further assay the target is T6, c-MET (Homo sapiens, UniProt P08581).
T6 construct: purchased Reaction Biology Corp. (Kinase HotSpot)
The experiment in a line: Kinase HotSpot 40-kinase panel. To be noted: single-dose concentration of 1 μM. It counts as biochemical. The method, then:
as §1, §2

Another assay has as its target T7, CDK2/cyclinE (Homo sapiens, UniProt P24941).
T7 construct: purchased Reaction Biology Corp. (Kinase HotSpot)
The experiment in a line: Kinase HotSpot 40-kinase panel. Format: biochemical. To be noted: single-dose concentration of 1 μM. The method, then:
as §1, §2

For a further assay, the target named is T8, LCK (Homo sapiens, UniProt P06239).
T8 construct: purchased Reaction Biology Corp. (Kinase HotSpot)
The assay is described as follows: Kinase HotSpot 40-kinase panel. It counts as biochemical. To be noted: single-dose concentration of 1 μM. As for the experimental part: as §1, §2

The next assay has as its target T9, SYK (Homo sapiens, UniProt P43405).
T9 construct: purchased Reaction Biology Corp. (Kinase HotSpot)
The assay is described as follows: Kinase HotSpot 40-kinase panel. It counts as biochemical. The settings on record: single-dose concentration of 1 μM. The method, then: as §1, §2

The target of a further assay is T10, FYN (Homo sapiens, UniProt P06241).
T10 construct: purchased Reaction Biology Corp. (Kinase HotSpot)
The assay is described as follows: Kinase HotSpot 40-kinase panel. It counts as biochemical. To be noted: single-dose concentration of 1 μM. The method, then: as §1, §2

For a further assay, the target named is T11, EGFR (T790M) (Homo sapiens, UniProt P00533, T790M).
T11 construct: purchased Reaction Biology Corp. (Kinase HotSpot)
The assay is described as follows: Kinase HotSpot 40-kinase panel. It counts as biochemical. The settings on record: single-dose concentration of 1 μM. The method, then:
as §1, §2

A further assay addresses T12, CDK5/p25 (Homo sapiens, UniProt Q00535).
T12 construct: purchased Reaction Biology Corp. (Kinase HotSpot)
The assay is described as follows: Kinase HotSpot 40-kinase panel. Format: biochemical. The settings on record: single-dose concentration of 1 μM. The method, then: as §1, §2

A further assay addresses T13, MLK1 (Homo sapiens, UniProt P80192).
T13 construct: purchased Reaction Biology Corp. (Kinase HotSpot)
The experiment in a line: Kinase HotSpot 40-kinase panel. It counts as biochemical. The settings on record: single-dose concentration of 1 μM. The method, then:
as §1, §2

Another assay addresses T14, IGF-1R (Homo sapiens, UniProt P08069).
T14 construct: purchased Reaction Biology Corp. (Kinase HotSpot)
The assay is described as follows: Kinase HotSpot 40-kinase panel. It counts as biochemical. The settings on record: single-dose concentration of 1 μM. The method, then:
as §1, §2

The next assay concerns the target T15, IR (Homo sapiens, UniProt P06213).
T15 construct: purchased Reaction Biology Corp. (Kinase HotSpot)
The experiment in a line: Kinase HotSpot 40-kinase panel. It counts as biochemical. To be noted: single-dose concentration of 1 μM. As for the experimental part:
as §1, §2

For another assay, the target named is T16, PDK1 (Homo sapiens, UniProt O15530).
T16 construct: purchased Reaction Biology Corp. (Kinase HotSpot)
The assay is described as follows: Kinase HotSpot 40-kinase panel. It counts as biochemical. To be noted: single-dose concentration of 1 μM. As for the experimental part:
as §1, §2

In another assay the test system is HS 27 fibroblasts. The experiment in a line: Antiproliferative screening against HS 27 fibroblasts. Format: cell-based. To be noted: HS-27 Fibroblasts (normal cells), concentration producing 50% inhibition. As for the experimental part:
It was conducted following the previously reported protocol.
(§3) Due to over-expression of FMS kinase in certain types of tumours such as ovarian, prostate, and breast[5–7] cancers, we decided to test the antiproliferative activity of compound 1r against a panel of six ovarian, two prostate, and five breast cancer cell lines. It was also tested against HS 27 fibroblasts in order to investigate the selectivity indexes. The results were compared with those of KIST101029 as a reference standard.

In assay [1] the test system is bone marrow-derived macrophages (BMDM). The experiment in a line: BMDM assay, CSF-1-induced BMDM growth (Alamar Blue). Format: cell-based, C57BL6 murine. To be noted: 5 days, triplicate assay, mean ± SEM, 10-dose from 1 µM, read-out: IC50 against bone marrow-derived macrophages (BMDM). As for the experimental part: The macrophages were isolated from C57BL6 murine bone marrow using Miltenyi Biotec MACS beads (CD11b). The macrophages (30,000 cells/well) were cultured in RPMI 1640 medium containing 10% foetal bovine serum, 2-mercaptoethanol ([…]), and the test compound for 1 h at 37 °C in the presence of 5% CO2. CSF-1 (20 ng/mL) was then added and the system was incubated for 5 days. Each compound was tested in a 10-dose testing mode, threefold serial dilution starting with 1 µM concentration. The inhibitory effects of the tested compounds against CSF-1-induced BMDM growth were determined using Alamar Blue^TM (Serotec).
FMS over-expression contributes to inflammatory disorders as explained in the Introduction section. So compounds 1r and KIST101029 were tested for their ability to inhibit CSF-1-induced BMDM growth. […] So, the compound 1r can be a promising candidate for future development of anti-arthritic drugs.
Each compound was tested in a 10-dose testing mode, threefold serial dilution starting with 1 µM concentration.
(The colour change of resazurin is a common sign of viable cells or microbes.)

Assay [2] has as its system panel of six ovarian, two prostate, and five breast cancer cell lines. The assay is described as follows: NCI antiproliferative screening, whole panel. Format: cell-based. To be noted: read-out: IC50 values, range over the cancer cell line panel. As for the experimental part: Compounds 1r and KIST101029 were tested at the National Cancer Institute (NCI, Bethesda, MD) following their standard protocol [https://dtp.cancer.gov/discovery_development/nci-60/methodology.htm].
as §3

For the next assay, the target named is T17, FMS kinase (Homo sapiens, UniProt P07333).
T17 construct: purchased Reaction Biology Corp
The assay is described as follows: Kinase HotSpot cell-free enzyme assay, FMS kinase. Format: biochemical. The method, then: as §1
Compounds 1a–r were tested in a 10-dose testing mode starting with 81 µM, threefold serial dilutions, against FMS kinase in a cell-free enzyme assay. […] This can be due to occupancy of a hydrophobic pocket with that additional benzoyl moiety and/or formation of additional hydrogen bond by the carbonyl oxygen.

Assay [3] deals with panel of 40 kinases including FMS. The assay is described as follows: Kinase HotSpot 40-kinase panel, summary over the other kinases. To be noted: 1 µM; kinases other than FMS, FLT3 (D835Y) and c-MET. Format: biochemical. The method, then:
as §1, §2

T2 sequence (P42680 whole entry): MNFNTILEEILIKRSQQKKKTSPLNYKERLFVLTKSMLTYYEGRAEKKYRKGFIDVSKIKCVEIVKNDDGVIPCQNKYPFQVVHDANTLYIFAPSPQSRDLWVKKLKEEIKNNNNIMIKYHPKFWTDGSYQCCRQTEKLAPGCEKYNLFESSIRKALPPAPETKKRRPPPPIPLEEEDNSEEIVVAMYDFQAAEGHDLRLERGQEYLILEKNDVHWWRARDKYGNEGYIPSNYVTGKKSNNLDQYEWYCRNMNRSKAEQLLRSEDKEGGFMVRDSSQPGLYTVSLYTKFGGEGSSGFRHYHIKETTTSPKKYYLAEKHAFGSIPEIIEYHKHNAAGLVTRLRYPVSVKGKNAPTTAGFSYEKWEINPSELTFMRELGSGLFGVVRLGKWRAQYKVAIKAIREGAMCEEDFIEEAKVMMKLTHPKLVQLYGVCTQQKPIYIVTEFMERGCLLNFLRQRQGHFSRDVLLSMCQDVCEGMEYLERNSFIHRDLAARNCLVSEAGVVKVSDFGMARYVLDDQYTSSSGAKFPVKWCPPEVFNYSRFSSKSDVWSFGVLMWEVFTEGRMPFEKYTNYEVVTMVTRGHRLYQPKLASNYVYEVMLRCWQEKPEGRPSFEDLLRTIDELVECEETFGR
T1 sequence (Q15418 whole entry): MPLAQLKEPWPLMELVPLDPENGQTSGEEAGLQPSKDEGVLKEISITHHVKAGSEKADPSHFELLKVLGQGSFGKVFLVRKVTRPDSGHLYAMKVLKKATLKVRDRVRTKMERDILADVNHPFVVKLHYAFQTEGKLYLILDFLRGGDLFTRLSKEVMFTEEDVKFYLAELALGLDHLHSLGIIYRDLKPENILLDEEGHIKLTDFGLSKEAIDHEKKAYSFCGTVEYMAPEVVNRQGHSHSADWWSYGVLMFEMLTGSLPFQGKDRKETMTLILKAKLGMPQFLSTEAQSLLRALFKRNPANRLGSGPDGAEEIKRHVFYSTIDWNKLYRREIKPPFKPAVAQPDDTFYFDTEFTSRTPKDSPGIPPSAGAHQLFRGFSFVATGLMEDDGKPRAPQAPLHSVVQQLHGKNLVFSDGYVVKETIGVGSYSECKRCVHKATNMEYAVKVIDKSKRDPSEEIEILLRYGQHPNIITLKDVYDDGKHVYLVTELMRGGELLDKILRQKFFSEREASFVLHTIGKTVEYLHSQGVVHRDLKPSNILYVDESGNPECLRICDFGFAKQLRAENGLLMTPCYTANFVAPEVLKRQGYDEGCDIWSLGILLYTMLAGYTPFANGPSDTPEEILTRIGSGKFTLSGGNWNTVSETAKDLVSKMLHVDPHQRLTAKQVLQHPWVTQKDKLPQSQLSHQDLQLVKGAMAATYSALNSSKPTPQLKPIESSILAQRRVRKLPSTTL
T5 sequence (Q06187 whole entry): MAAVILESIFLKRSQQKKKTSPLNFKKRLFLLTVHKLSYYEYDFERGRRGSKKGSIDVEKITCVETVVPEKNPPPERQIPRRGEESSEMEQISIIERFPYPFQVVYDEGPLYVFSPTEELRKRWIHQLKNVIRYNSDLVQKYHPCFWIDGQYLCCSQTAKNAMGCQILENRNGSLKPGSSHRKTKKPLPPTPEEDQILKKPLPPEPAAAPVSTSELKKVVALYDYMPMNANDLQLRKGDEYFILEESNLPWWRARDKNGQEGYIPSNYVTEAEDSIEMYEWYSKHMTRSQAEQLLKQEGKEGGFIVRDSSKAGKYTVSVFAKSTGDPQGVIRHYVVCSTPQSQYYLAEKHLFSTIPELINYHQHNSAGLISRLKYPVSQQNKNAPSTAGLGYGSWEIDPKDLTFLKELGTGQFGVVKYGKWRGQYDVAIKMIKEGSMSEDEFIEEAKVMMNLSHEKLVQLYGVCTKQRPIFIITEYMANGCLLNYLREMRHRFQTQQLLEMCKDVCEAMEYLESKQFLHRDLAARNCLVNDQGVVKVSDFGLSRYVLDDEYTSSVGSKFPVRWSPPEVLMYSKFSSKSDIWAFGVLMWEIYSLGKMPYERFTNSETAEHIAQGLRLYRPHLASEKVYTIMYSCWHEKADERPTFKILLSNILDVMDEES
T15 sequence (P06213 28-1382): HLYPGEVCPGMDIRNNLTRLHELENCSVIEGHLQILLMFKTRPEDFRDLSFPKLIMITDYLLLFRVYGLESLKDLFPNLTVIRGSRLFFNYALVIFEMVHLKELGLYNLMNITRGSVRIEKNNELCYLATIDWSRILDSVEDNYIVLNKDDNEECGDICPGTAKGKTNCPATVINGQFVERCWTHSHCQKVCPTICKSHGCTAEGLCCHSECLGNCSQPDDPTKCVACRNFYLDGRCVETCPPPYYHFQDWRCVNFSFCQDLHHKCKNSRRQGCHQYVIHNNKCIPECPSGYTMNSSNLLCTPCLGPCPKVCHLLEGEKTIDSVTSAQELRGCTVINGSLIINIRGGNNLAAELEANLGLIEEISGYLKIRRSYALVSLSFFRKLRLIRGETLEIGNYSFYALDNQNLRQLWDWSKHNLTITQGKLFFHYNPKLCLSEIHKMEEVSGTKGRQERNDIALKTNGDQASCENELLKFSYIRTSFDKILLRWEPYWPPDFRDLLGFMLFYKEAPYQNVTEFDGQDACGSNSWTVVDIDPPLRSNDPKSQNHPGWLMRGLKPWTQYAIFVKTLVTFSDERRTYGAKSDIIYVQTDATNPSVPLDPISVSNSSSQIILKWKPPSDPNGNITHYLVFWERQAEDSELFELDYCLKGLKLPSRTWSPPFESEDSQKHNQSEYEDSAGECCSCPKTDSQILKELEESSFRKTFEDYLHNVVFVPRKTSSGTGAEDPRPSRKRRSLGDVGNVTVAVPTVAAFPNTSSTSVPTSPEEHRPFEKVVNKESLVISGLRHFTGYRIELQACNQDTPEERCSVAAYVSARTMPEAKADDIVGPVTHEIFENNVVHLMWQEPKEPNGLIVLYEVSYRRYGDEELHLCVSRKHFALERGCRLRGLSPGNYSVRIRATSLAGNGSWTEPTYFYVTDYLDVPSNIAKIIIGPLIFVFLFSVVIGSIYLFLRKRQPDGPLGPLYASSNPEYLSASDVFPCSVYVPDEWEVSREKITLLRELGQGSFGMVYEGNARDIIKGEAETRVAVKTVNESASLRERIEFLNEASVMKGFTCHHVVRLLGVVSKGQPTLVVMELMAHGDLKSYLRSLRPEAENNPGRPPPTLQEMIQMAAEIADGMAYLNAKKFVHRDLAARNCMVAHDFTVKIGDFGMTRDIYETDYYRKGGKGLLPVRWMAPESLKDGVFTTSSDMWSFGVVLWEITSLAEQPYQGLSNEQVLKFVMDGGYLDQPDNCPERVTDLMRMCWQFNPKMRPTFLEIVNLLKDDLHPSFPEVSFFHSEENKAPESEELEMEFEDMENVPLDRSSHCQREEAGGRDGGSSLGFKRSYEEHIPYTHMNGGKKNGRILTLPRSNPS
T11 sequence (P00533 25-1210 T790M): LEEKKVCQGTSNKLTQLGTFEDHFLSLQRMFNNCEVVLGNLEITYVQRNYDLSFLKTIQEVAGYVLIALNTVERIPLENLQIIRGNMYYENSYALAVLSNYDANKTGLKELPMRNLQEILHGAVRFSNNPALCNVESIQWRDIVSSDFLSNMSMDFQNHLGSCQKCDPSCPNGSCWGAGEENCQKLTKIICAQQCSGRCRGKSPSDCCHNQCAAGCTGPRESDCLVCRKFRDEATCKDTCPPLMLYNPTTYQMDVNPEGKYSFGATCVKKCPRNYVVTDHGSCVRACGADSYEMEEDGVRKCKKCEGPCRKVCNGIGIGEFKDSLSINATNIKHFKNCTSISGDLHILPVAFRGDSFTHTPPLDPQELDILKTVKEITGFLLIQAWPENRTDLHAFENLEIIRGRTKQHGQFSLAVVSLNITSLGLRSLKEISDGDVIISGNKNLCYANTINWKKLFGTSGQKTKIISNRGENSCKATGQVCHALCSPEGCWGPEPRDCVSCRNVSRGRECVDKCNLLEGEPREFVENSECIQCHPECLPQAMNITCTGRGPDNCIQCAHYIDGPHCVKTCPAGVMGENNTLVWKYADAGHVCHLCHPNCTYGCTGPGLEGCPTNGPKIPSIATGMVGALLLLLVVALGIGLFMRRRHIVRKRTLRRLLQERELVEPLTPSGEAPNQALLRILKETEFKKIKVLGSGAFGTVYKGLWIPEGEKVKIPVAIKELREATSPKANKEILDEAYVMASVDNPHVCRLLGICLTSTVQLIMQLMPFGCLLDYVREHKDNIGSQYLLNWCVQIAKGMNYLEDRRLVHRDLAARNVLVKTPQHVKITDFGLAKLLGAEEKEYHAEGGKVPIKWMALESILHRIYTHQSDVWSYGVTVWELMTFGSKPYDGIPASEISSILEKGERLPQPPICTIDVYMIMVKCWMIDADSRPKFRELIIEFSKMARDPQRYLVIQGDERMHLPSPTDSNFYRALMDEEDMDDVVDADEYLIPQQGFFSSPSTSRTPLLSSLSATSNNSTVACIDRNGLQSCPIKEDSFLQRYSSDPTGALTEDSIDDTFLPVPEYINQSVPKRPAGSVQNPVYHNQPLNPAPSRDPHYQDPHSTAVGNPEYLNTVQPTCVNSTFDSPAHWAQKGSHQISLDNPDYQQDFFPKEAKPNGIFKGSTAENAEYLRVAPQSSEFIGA
T12 sequence (Q00535 whole entry): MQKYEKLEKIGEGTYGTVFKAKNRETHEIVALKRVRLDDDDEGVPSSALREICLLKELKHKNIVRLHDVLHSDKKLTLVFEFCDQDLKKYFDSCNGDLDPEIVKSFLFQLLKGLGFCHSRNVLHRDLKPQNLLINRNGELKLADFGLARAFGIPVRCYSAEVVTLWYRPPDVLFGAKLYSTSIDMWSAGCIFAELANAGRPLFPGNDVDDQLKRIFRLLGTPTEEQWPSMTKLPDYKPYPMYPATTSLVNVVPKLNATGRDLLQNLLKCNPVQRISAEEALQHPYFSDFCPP
T12 sequence (Q15078 99-307 partner limits assumed): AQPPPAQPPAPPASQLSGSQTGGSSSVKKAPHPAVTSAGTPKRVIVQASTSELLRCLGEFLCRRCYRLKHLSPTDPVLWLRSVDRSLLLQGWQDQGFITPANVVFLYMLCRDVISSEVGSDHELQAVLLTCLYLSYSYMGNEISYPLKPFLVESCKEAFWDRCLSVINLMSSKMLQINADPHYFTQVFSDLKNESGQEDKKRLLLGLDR

On to `O=C(Nc1cccc(-n2ccc3c(NC(=O)c4ccccc4)nccc32)c1)c1ccc(N2CCOCC2)c(C(F)(F)F)c1` [KIST101029, reference compound], for which the inhibition at 1 µM against RSK1 was 8%; at TEC (activated) it was 14%; on ABL1 it was 41%; at RET it was 57%; at BTK, 7%; against c-MET, -16%. In addition, the inhibition at 1 µM on CDK2/cyclinE is -12%; at LCK, 33%; against SYK it was 6%; against FYN, 44%; against EGFR (T790M), 1%; at CDK5/p25 it was 8%. Besides, the inhibition at 1 µM on MLK1 was -1%; at IGF-1R it was 10%; against IR it was 2%; against PDK1 it was -1%. Moreover, the IC50 in the assay with HS 27 fibroblasts (Homo sapiens, HS27) came out at 300 nM; in assay [1] (Mus musculus, 120 h), 195 ± 6 nM.

Regarding `Nc1nccc2c1ccn2-c1cccc(NC(=O)c2ccc(N3CCOCC3)c(C(F)(F)F)c2)c1` [Compound 1r], the half-maximal inhibitory concentration (IC50) is 150 to 1780 nM in assay [2]; 30 ± 20 nM at FMS kinase (10-dose duplicate assay, mean ± SEM, starting with 81 µM, threefold serial dilution, read-out: IC50 against FMS kinase); 5720 nM with HS 27 fibroblasts; 84 ± 3 nM in assay [1]. Further, the “% Inhibition” value is −4% at RSK1; 10% at TEC (activated); 15% at ABL1; 27% at RET; 1% at BTK; 40% at c-MET. For the same molecule, the “% Inhibition” value is −1% at CDK2/cyclinE; −7% at LCK; −5% at SYK; 14% on FYN; 4% at EGFR (T790M); −5% on CDK5/p25. The “% Inhibition” value at MLK1 is given as −4%; on IGF-1R, 4%; on IR, 5%; on PDK1 it was −7%. In addition, at FMS kinase (ratio of IC50 values, more potent than lead compound KIST101029), the “Potency against FMS kinase relative to KIST101029” value is on record as 3.2 times. Also, in assay [3], the “Inhibition percentages against the other 37 tested kinases” value is reported as “less than 28%”.
